Test results: US7638320B2, “Bengamide derivatives, process for preparing them, and their use” (sanofi-aventis Deutschland GmbH, priority 2003, dated 2009)
Where two headings read alike, the source gives them in different places.

How the values were obtained:
[1] = tested on: Hep-G2 (ATCC No. HB-8065) tumor cell line; test: Cell proliferation test (intracellular ATP, CellTiterGlo) on Hep-G2; type: cell-based; settings: read-out: Activity in a cell proliferation test, expressed as TC50 value, Hep-G2
Method: (§1) A test which is based on determining the intracellular concentration of ATP is employed for detecting the inhibition of cell proliferation. It is possible to use known tumor cell lines such as Hep-G2 and Colo205. In this test, the ATP content of metabolically active cells serves, in a luciferase reaction, as a measure of the number of living cells.
(§2) The compounds of the formula (II)-(VI) were used in the test in a single dose of 0.3-40 μM and a dose dependency given as a TC50 value, with (IIA) and (IIB) in each case denoting a diastereomer of the compound of the formula (II): […]
(§3) The tumor cell lines Hep-G2 (ATCC No. HB-8065) and COLO 205 (ATCC No. CCL-222) were used for determining the cell proliferation. The cell lines were sown in cell culture medium at the rate of 1000 cells/well [Hep-G2] and, respectively, 3500 cells/well [Colo205] and incubated for 4 hours at 37° C. and 5% CO2.
Medium for Hep-G2: Dulbecco's modified Eagle's medium/Ham's F12 mix (Gibco); NEAA (10%; nonessential amino acids, Gibco), sodium pyruvate (1%, Gibco), L-glutamine (1%, Gibco), fetal calf serum (5%; PAA)].
(§4) After 4 hours, compounds (II), (III) and (IV) and bengamides E and F, dissolved in DMSO/cell culture medium, were added at various dilutions and the mixtures were incubated for 72 hours at 37° C. and 5% CO2. The intracellular content of ATP was determined using the test reagent CellTiterGlo (Promega).

[2] = tested on: COLO 205 (ATCC No. CCL-222) tumor cell line; test: Cell proliferation test (intracellular ATP, CellTiterGlo) on COLO 205; type: cell-based; settings: read-out: Activity in a cell proliferation test, expressed as TC50 value, Colo 205
Method: as §1, §2, §3
Medium for COLO 205: RPMI 1640 (Gibco), L-glutamine (1%, Gibco), HEPES (1%, Gibco), fetal calf serum (10%, PAA).
as §4

[3] = tested on: eukaryotic cells, nematodes and bacteria; settings: Adamczewski et al., J. Org. Chem. 1986; cited from earlier work
cell proliferation = settings: stops cell division at the G1/S restriction point and in the G2/M phase; cited from earlier work
[4] = Colo 205, 72 hours incubation, ATP content, tested at 0.3-40 μM

CCC(C)/C=C/C(O)C(O)C(O)[C@@H](OC)C(=O)N[C@H]1CCCCN(C)C1=O (stereo partly shown) [(III)]
TC50 (50% inhibition of cell proliferation) ([1]; Homo sapiens, HepG2, 72 h): 9 µM
CC50 ([2]; Homo sapiens, COLO 205, 72 h): 15 µM

CCC(C)/C=C/C(O)C(O)C(O)[C@@H](OC)C(=O)N[C@H]1CCC(O)CNC1=O (stereo partly shown) [(IV)]
TC50 (50% inhibition of cell proliferation) ([1]; Homo sapiens, HepG2, 72 h): > 40 µM
CC50 [2, 4]: 42 µM

CCCCCCCCCCCCCC(=O)O[C@H]1CC[C@H](NC(=O)[C@H](OC)[C@H](O)[C@@H](O)[C@H](O)/C=C/C(C)C)C(=O)NC1 [Bengamide A]
Biotoxicity to eukaryotic cells, nematodes and bacteria [3]: biotoxic

CCCCCCCCCCCCCC(=O)O[C@H]1CC[C@H](NC(=O)[C@H](OC)[C@H](O)[C@@H](O)[C@H](O)/C=C/C(C)C)C(=O)N(C)C1 [Bengamide B]
Biotoxicity to eukaryotic cells, nematodes and bacteria [3]: biotoxic

CO[C@@H](C(=O)N[C@H]1CCCCNC1=O)[C@H](O)[C@@H](O)[C@H](O)/C=C/C(C)C [Bengamide E]
Inhibition of cell proliferation (cell proliferation): inhibits cell proliferation
TC50 (50% inhibition of cell proliferation) ([1]; Homo sapiens, HepG2, Hep-G2, 72 hours incubation, ATP content, tested at 0.3-40 μM): 36 µM
CC50 [2, 4]: 46 µM

CO[C@@H](C(=O)N[C@H]1CCCCN(C)C1=O)[C@H](O)[C@@H](O)[C@H](O)/C=C/C(C)C [Bengamide F]
TC50 (50% inhibition of cell proliferation) ([1]; Hep-G2, 72 hours incubation, ATP content, tested at 0.3-40 μM): 27 µM
CC50 [2, 4]: 33 µM

CCC(C)/C=C/C(O)C(O)C(O)[C@@H](OC)C(=O)N[C@H]1CCCCNC1=O (stereo partly shown) [Compound (II)]
TC50 (50% inhibition of cell proliferation) ([1]; Homo sapiens, HepG2, 72 h): 16 µM
CC50 ([2]; Homo sapiens, COLO 205, 72 h): 27 µM
